Laboratory results from US20130252816A1, “HERBICIDAL COMPOSITION AND USE THEREOF” (Syngenta Crop Protection LLC, priority 2010, published 2013).

Key:
Type in all cases: in vivo
[1] = test system: Veronica persica; assay: Example 2: alcohol ethoxylate adjuvants without glyphosate, visual % damage, tracksprayer 300 l/ha
From the text: (§1) The effect of different types of alcohol ethoxylate (branched—Genapol X-series, and unbranched—Genapol O-series, differing degrees of ethoxylation, see Table 3 below for more details), on unwanted vegetation (broadleaf weed and grass species), in the absence of glyphosate, was investigated and compared to untreated (water only) control weeds.
(§2) Troughs (measuring 16 cm by 13 cm by 5 cm) were filled with local field soil. Seeds of Veronica persica, Stellaria media, Trifolium repens and Poa annua were sown 24 days before application of test samples. Plants were grown in the glasshouse at 18 to 20° C. and 60% relative humidity. Application of alcohol ethoxylate test samples was carried out using a tracksprayer, spraying at a rate of 300 l/ha. Plants were kept in glasshouse and visual assessment of the estimated percentage damage to the plant was carried out 1, 7, and 14 days from application.
(§3) Damage was assessed as wilting, desiccation or any other kind of visual injury in comparison to the untreated control (water only).

[2] = test system: Poa annua; assay: as above
From the text: as §1, §2, §3

[3] = test system: Trifolium repens; assay: as above
From the text: as §1, §2, §3

[4] = test system: Stellaria media; assay: as above
From the text: as §1, §2, §3

[5] = test system: Poa annua; assay: Example 1: adjuvants alone, visual % damage, pots in glasshouse
Description: (§4) The effect of different adjuvants (see Table 1 below) on the growth of broadleaf weed and grass species was investigated and compared to untreated (water only) control weeds.
(§5) Plates, each with 48 pots measuring 2.7 cm diameter and 5 cm deep, were filled with TKS1 growing media (Floragard, Germany). Seeds of Taraxacum officinale, Stellaria media or Poa annua were sown on the surface (10 to 20 per pot). Plants were grown in glasshouse at a temperature of 18 to 20° C. and at 60% relative humidity.
(§6) Plants were treated 15 (Stellaria, Poa) and 34 (Taraxacum) days after sowing with 60 μl of a 1.25, 2.5, 5 and 10% (w/v) solution of adjuvant using a hand airbrush.
(§7) Visual assessment of the percentage damage to the plant was carried out 1 day and 6 days from application.
as §3

[6] = test system: Taraxacum officinale; assay: as above
Description: as §4, §5, §6, §7, §3

[7] = test system: Stellaria media; assay: as above
Description: as §4, §5, §6, §7, §3

Oleyl alcohol polyglycol ether with 8 moles of ethoxylation [GenapolO080]
mean % damage 1 daa Veronica persica ([1]; adjuvant 1% w/v): 0% | mean % damage 7 daa Veronica persica ([1]; adjuvant 1% w/v): 5% | mean % damage 14 daa Veronica persica ([1]; adjuvant 1% w/v): 10% | mean % damage 1 daa Veronica persica ([1]; adjuvant 1.5% w/v): 0% | mean % damage 7 daa Veronica persica ([1]; adjuvant 1.5% w/v): 0% | mean % damage 14 daa Veronica persica ([1]; adjuvant 1.5% w/v): 10% | mean % damage 1 daa Veronica persica ([1]; adjuvant 2% w/v): 0% | mean % damage 7 daa Veronica persica ([1]; adjuvant 2% w/v): 0% | mean % damage 14 daa Veronica persica ([1]; adjuvant 2% w/v): 0% | mean % damage 1 daa Veronica persica ([1]; adjuvant 2.5% w/v): 0% | mean % damage 7 daa Veronica persica ([1]; adjuvant 2.5% w/v): 5% | mean % damage 14 daa Veronica persica ([1]; adjuvant 2.5% w/v): 0% | mean % damage 1 daa Poa annua ([2]; adjuvant 1% w/v): 0% | mean % damage 7 daa Poa annua ([2]; adjuvant 1% w/v): 5% | mean % damage 14 daa Poa annua ([2]; adjuvant 1% w/v): 0% | mean % damage 1 daa Poa annua ([2]; adjuvant 1.5% w/v): 0% | mean % damage 7 daa Poa annua ([2]; adjuvant 1.5% w/v): 5% | mean % damage 14 daa Poa annua ([2]; adjuvant 1.5% w/v): 0% | mean % damage 1 daa Poa annua ([2]; adjuvant 2% w/v): 0% | mean % damage 7 daa Poa annua ([2]; adjuvant 2% w/v): 5% | mean % damage 14 daa Poa annua ([2]; adjuvant 2% w/v): 0% | mean % damage 1 daa Poa annua ([2]; adjuvant 2.5% w/v): 0% | mean % damage 7 daa Poa annua ([2]; adjuvant 2.5% w/v): 5% | mean % damage 14 daa Poa annua ([2]; adjuvant 2.5% w/v): 0% | mean % damage 1 daa Trifolium repens ([3]; adjuvant 1% w/v): 0% | mean % damage 7 daa Trifolium repens ([3]; adjuvant 1% w/v): 0% | mean % damage 14 daa Trifolium repens ([3]; adjuvant 1% w/v): 0% | mean % damage 1 daa Trifolium repens ([3]; adjuvant 1.5% w/v): 0% | mean % damage 7 daa Trifolium repens ([3]; adjuvant 1.5% w/v): 0% | mean % damage 14 daa Trifolium repens ([3]; adjuvant 1.5% w/v): 0% | mean % damage 1 daa Trifolium repens ([3]; adjuvant 2% w/v): 5% | mean % damage 7 daa Trifolium repens ([3]; adjuvant 2% w/v): 0% | mean % damage 14 daa Trifolium repens ([3]; adjuvant 2% w/v): 0% | mean % damage 1 daa Trifolium repens ([3]; adjuvant 2.5% w/v): 5% | mean % damage 7 daa Trifolium repens ([3]; adjuvant 2.5% w/v): 10% | mean % damage 14 daa Trifolium repens ([3]; adjuvant 2.5% w/v): 10% | mean % damage 1 daa Stellaria media ([4]; adjuvant 1% w/v): 0% | mean % damage 7 daa Stellaria media ([4]; adjuvant 1% w/v): 0% | mean % damage 14 daa Stellaria media ([4]; adjuvant 1% w/v): 0% | mean % damage 1 daa Stellaria media ([4]; adjuvant 1.5% w/v): 0% | mean % damage 7 daa Stellaria media ([4]; adjuvant 1.5% w/v): 0% | mean % damage 14 daa Stellaria media ([4]; adjuvant 1.5% w/v): 5% | mean % damage 1 daa Stellaria media ([4]; adjuvant 2% w/v): 0% | mean % damage 7 daa Stellaria media ([4]; adjuvant 2% w/v): 5% | mean % damage 14 daa Stellaria media ([4]; adjuvant 2% w/v): 0% | mean % damage 1 daa Stellaria media ([4]; adjuvant 2.5% w/v): 0% | mean % damage 7 daa Stellaria media ([4]; adjuvant 2.5% w/v): 0% | mean % damage 14 daa Stellaria media ([4]; adjuvant 2.5% w/v): 10%

Oleyl alcohol polyglycol ether with 10 moles of ethoxylation [GenapolO100]
avg % damage 1 DAA Poa annua ([5]; adjuvant 1.25% w/v): 0% | avg % damage 6 DAA Poa annua ([5]; adjuvant 1.25% w/v): 5% | avg % damage 1 DAA Poa annua ([5]; adjuvant 2.5% w/v): 0% | avg % damage 6 DAA Poa annua ([5]; adjuvant 2.5% w/v): 10% | avg % damage 1 DAA Poa annua ([5]; adjuvant 5% w/v): 0% | avg % damage 6 DAA Poa annua ([5]; adjuvant 5% w/v): 10% | avg % damage 1 DAA Poa annua ([5]; adjuvant 10% w/v): 0% | avg % damage 6 DAA Poa annua ([5]; adjuvant 10% w/v): 10% | avg % damage 1 DAA Taraxacum officinale ([6]; adjuvant 1.25% w/v): 0% | avg % damage 6 DAA Taraxacum officinale ([6]; adjuvant 1.25% w/v): 0% | avg % damage 1 DAA Taraxacum officinale ([6]; adjuvant 2.5% w/v): 5% | avg % damage 6 DAA Taraxacum officinale ([6]; adjuvant 2.5% w/v): 0% | avg % damage 1 DAA Taraxacum officinale ([6]; adjuvant 5% w/v): 5% | avg % damage 6 DAA Taraxacum officinale ([6]; adjuvant 5% w/v): 0% | avg % damage 1 DAA Taraxacum officinale ([6]; adjuvant 10% w/v): 5% | avg % damage 6 DAA Taraxacum officinale ([6]; adjuvant 10% w/v): 0% | avg % damage 1 DAA Stellaria media ([7]; adjuvant 1.25% w/v): 0% | avg % damage 6 DAA Stellaria media ([7]; adjuvant 1.25% w/v): 5% | avg % damage 1 DAA Stellaria media ([7]; adjuvant 2.5% w/v): 5% | avg % damage 6 DAA Stellaria media ([7]; adjuvant 2.5% w/v): 10% | avg % damage 1 DAA Stellaria media ([7]; adjuvant 5% w/v): 15% | avg % damage 6 DAA Stellaria media ([7]; adjuvant 5% w/v): 30% | avg % damage 1 DAA Stellaria media ([7]; adjuvant 10% w/v): 50% | avg % damage 6 DAA Stellaria media ([7]; adjuvant 10% w/v): 55%

Oleyl alcohol polyglycol ether with 15 moles of ethoxylation [GenapolO150]
avg % damage 1 DAA Poa annua ([5]; adjuvant 1.25% w/v): 0% | avg % damage 6 DAA Poa annua ([5]; adjuvant 1.25% w/v): 0% | avg % damage 1 DAA Poa annua ([5]; adjuvant 2.5% w/v): 0% | avg % damage 6 DAA Poa annua ([5]; adjuvant 2.5% w/v): 0% | avg % damage 1 DAA Poa annua ([5]; adjuvant 5% w/v): 0% | avg % damage 6 DAA Poa annua ([5]; adjuvant 5% w/v): 0% | avg % damage 1 DAA Poa annua ([5]; adjuvant 10% w/v): 0% | avg % damage 6 DAA Poa annua ([5]; adjuvant 10% w/v): 0% | avg % damage 1 DAA Taraxacum officinale ([6]; adjuvant 1.25% w/v): 0% | avg % damage 6 DAA Taraxacum officinale ([6]; adjuvant 1.25% w/v): 3% | avg % damage 1 DAA Taraxacum officinale ([6]; adjuvant 2.5% w/v): 0% | avg % damage 6 DAA Taraxacum officinale ([6]; adjuvant 2.5% w/v): 0% | avg % damage 1 DAA Taraxacum officinale ([6]; adjuvant 5% w/v): 5% | avg % damage 6 DAA Taraxacum officinale ([6]; adjuvant 5% w/v): 3% | avg % damage 1 DAA Taraxacum officinale ([6]; adjuvant 10% w/v): 5% | avg % damage 6 DAA Taraxacum officinale ([6]; adjuvant 10% w/v): 3% | avg % damage 1 DAA Stellaria media ([7]; adjuvant 1.25% w/v): 0% | avg % damage 6 DAA Stellaria media ([7]; adjuvant 1.25% w/v): 5% | avg % damage 1 DAA Stellaria media ([7]; adjuvant 2.5% w/v): 0% | avg % damage 6 DAA Stellaria media ([7]; adjuvant 2.5% w/v): 20% | avg % damage 1 DAA Stellaria media ([7]; adjuvant 5% w/v): 13% | avg % damage 6 DAA Stellaria media ([7]; adjuvant 5% w/v): 30% | avg % damage 1 DAA Stellaria media ([7]; adjuvant 10% w/v): 43% | avg % damage 6 DAA Stellaria media ([7]; adjuvant 10% w/v): 60%
